{
  "source": "patent US20120107423A1",
  "about": "“Methods of Using Inhaled Nitric Oxide Gas for Treatment of Acute Respiratory Distress Syndrome” (INO Therapeutics LLC, priority 2010, published 2012)",
  "key": {"[1]": {"conditions": "at STP; cited from earlier work"}, "[2]": {"test_system": "experimental animals and ARDS patients", "conditions": "cited from earlier work"}, "[3]": {"test_system": "patients with moderately severe acute lung injury (ALI) / ARDS survivors", "experiment": "Respiratory parameters during mechanical ventilation: cumulative exposure (AUC) over study gas administration", "assay_type": "in vivo, human", "conditions": "for Duration of exposure: PaO2/FiO2 ratio: during study gas administration / length of mechanical ventilation", "description": "Baseline oxygenation measures included PaO2, arterial partial pressure of CO2 (PaCO2), SpO2, FiO2, PEEP, PaO2/FiO2 ratio, […], tidal volume, and mean airway pressure. Respiratory parameters (FiO2, PEEP, and PaO2/FiO2 ratio) were recorded on case report forms every 12 hours during mechanical ventilation.\n(§1) All between-group differences in PFT results were evaluated using the Wilcoxon rank sum test. Between-group differences in baseline clinical and demographic characteristics were assessed with the Fisher's exact test and the chi-square test for categorical variables and with the Wilcoxon rank sum test for continuous variables. Baseline oxygenation and respiratory/oxygenation parameters in the two groups were compared using Wilcoxon rank sum tests. The areas under the curve (AUCs) of FiO2, PEEP, and PaO2/FiO2 ratio were calculated using the trapezoidal rule. The null hypothesis that the respective AUCs were normally distributed was rejected employing the Shapiro-Wilk test. A Wilcoxon rank sum test was utilized to assess the differences in each median AUC between treatment groups. A p value <0.05 was considered significant."}, "ARDS patients": {"test_system": "ARDS patients", "conditions": "cited from earlier work"}, "[4]": {"test_system": "patients with moderately severe acute lung injury (ALI) / ARDS survivors", "experiment": "Pulmonary function tests at 6 months post-treatment in ARDS survivors (iNO 5 ppm vs placebo)", "assay_type": "in vivo, human", "description": "(§2) A large-scale, randomized, blinded, placebo-controlled study was carried out in the Intensive Care Units (ICUs) of 46 US hospitals to evaluate the efficacy of low-dose (5 ppm) iNO in 385 patients with moderately severe Acute Lung Injury (ALI). The primary endpoint of this study was number of days alive and off assisted breathing.\n(§3) Patients had moderately severe acute lung injury (ALI), defined by a modification of American-European Consensus Conference criteria (PaO2/inspired oxygen concentration [FiO2] ratio of ≦250 mm Hg), due to causes other than severe sepsis. Patients with evidence of non-pulmonary system failure at the time of randomization and sepsis-induced ARDS were excluded. Patients were also excluded if they had sustained hypotension requiring vasopressor support, hemodynamic profiles supporting severe sepsis, severe head injury, severe burns, or evidence of other significant organ system dysfunction at baseline.\n(§4) Patients were randomly assigned to receive either inhaled placebo gas (nitrogen) or 5 ppm of iNO (INO Therapeutics Inc., Port Allen, La.). All patients, healthcare professionals, and investigators were blinded to the assigned treatment. Inhaled NO was administered via INOvent® delivery system (Datex-Ohmeda, Madison, Wis.) that blended treatment gas (nitrogen or NO at 100-ppm balance nitrogen) 1:20 with ventilator gases to achieve a target ppm value in the inspiratory limb of the ventilator.\n(§5) All patients using the iNO delivery system received mechanical ventilatory support. Treatment continued with active or placebo gas until one of the following criteria were met: [1] end of trial (28 days); [2] death; or [3] adequate oxygenation (arterial oxygen saturation by pulse oximetry [SpO2]≧92% or PaO2 of ≧63 mm Hg) without treatment gas at ventilator settings of FiO2≦0.4 and positive end-expiratory pressure (PEEP) of ≦5 cm H2O. Decreases in treatment gas continued in 20% decrements (titrated down by 1 ppm for inhaled NO) every 30 minutes until either the treatment gas concentration reached 0% or oxygenation criteria were not satisfied. If oxygenation criteria were not met, treatment gas concentration was titrated up until they were again achieved. Increments of upward titration were determined by the clinician, based on degree of arterial desaturation.\nPulmonary function testing (PFT) at 6 months post-treatment was required in both iNO- and placebo-treated patients as part of the original study design. PFTs included forced expiratory volume in 1 second (FEV1), FEV1% predicted, forced vital capacity (FVC), FVC % predicted, the FEV1/FVC ratio, FEV1/FVC ratio % predicted, forced expiratory flow (FEF) from 25% to 75% of FVC (FEF25-75%), FEF25-75%% predicted, functional residual capacity (FRC), FRC % predicted, total lung capacity (TLC), TLC % predicted, CO diffusion, and CO diffusion % predicted.\nas §1\nA total of 92 of the 302 survivors (30%) were capable of and participated in the 6-month follow-up pulmonary function analysis (iNO, n=51; placebo, n=41). The balance of surviving subjects was lost to follow-up for reasons unknown, and PFT data are not available. […]"}, "[5]": {"test_system": "patients with moderately severe Acute Lung Injury (ALI)", "experiment": "Safety results, adverse events in the initial 28-day study period", "assay_type": "in vivo, human", "conditions": "iNO 5 ppm", "description": "as §2\nSafety results for the initial 28-day study period have been reported and are summarized briefly here. A total of 630 adverse events (AEs) were reported for patients treated with iNO versus 666 events for those who received placebo. Respiratory system AEs occurred in 51% versus 61% of patients receiving iNO and placebo, respectively, primarily due to higher frequencies of pneumonia, pneumothorax, and apnea in the placebo group."}, "[6]": {"test_system": "patients with moderately severe Acute Lung Injury (ALI)", "experiment": "Randomized, blinded, placebo-controlled 28-day study of low-dose (5 ppm) iNO, intent-to-treat analysis", "assay_type": "in vivo, human", "description": "as §2, §3, §4, §5"}, "[7]": {"conditions": "experimental animals and ARDS patients"}},
  "data": [
    {"smiles": "[N]=O", "note": "[Inhaled NO, nitric oxide]", "values": [
      {"measurement": "Solubility in water", "setting": "[1]", "result": "about 2 mM"},
      {"measurement": "Formation of platelet-leukocyte aggregates", "setting": "[2]; correlated with NO-dependent inhibition of platelet P-selectin expression", "result": "significantly inhibiting"},
      {"measurement": "Pulmonary concentrations of interleukin (IL)-8", "setting": "[2]; [7]", "result": "significantly decreases"},
      {"measurement": "Pulmonary concentrations of neutrophils", "setting": "[2]; [7]", "result": "significantly decreases"},
      {"measurement": "Duration of exposure: PaO2/FiO2 ratio", "setting": "[3]; mean ± SD", "result": "262 ± 407"},
      {"measurement": "Duration of exposure: PaO2/FiO2 ratio", "setting": "[3]; mean ± SD, listed as iNO", "result": "2637±1729"},
      {"measurement": "Duration of exposure: FiO2", "setting": "[3]; during study gas administration, mean ± SD, N = 51", "result": "6.34 ± 4.5"},
      {"measurement": "Cumulative exposure to FiO2, PEEP and PaO2/FiO2 ratio, versus placebo", "setting": "[3]; over the length of mechanical ventilation", "result": "less cumulative exposure to all three variables"},
      {"measurement": "Duration of exposure, total FiO2", "setting": "[3]; over the length of mechanical ventilation, mean ± SD", "result": "6.3 ± 4.5", "unit": "days"},
      {"measurement": "Aggregate per-patient changes from baseline in supplemental oxygen, PEEP, or PaO2/FiO2 ratio, versus placebo", "setting": "[3]; through day 28 (FIG. 2a-c)", "result": "no significant differences between groups"},
      {"measurement": "H2O2 production by polymorphonuclear leukocytes", "setting": "ARDS patients", "result": "significantly decrease"},
      {"measurement": "IL-6 concentration in BAL fluid", "setting": "ARDS patients", "result": "decreased"},
      {"measurement": "IL-8 concentration in BAL fluid", "setting": "ARDS patients", "result": "decreased"},
      {"measurement": "β2-integrin CD11b/CD18 expression by polymorphonuclear leukocytes", "setting": "ARDS patients", "result": "significantly decrease"},
      {"measurement": "FRC, % predicted", "setting": "[4]; mean", "result": 93.98, "unit": "% predicted"},
      {"measurement": "TLC", "setting": "[4]; mean", "result": 5.54, "unit": "L"},
      {"measurement": "TLC, % predicted", "setting": "[4]; mean", "result": 93.33, "unit": "% predicted"},
      {"measurement": "CO diffusion", "setting": "[4]; mean (SD)", "result": "18.25 (6.77) mL/min/mm Hg"},
      {"measurement": "CO diffusion, % predicted", "setting": "[4]; mean (SD)", "result": "71.02 (20.79) % predicted"},
      {"measurement": "FEF25/75%, % predicted", "setting": "[4]; mean (SD)", "result": "72.50 (27.71) % predicted"},
      {"measurement": "FEV1, % predicted", "setting": "[4]; mean (SD)", "result": "80.23 (21.21) % predicted"},
      {"measurement": "FEV1/FVC", "setting": "[4]; mean (SD)", "result": "77.45 (15.19) %"},
      {"measurement": "FEV1/FVC, % predicted", "setting": "[4]; mean (SD)", "result": "96.14 (13.79) % predicted"},
      {"measurement": "FRC", "setting": "[4]; mean (SD)", "result": "3.00 (0.94) L"},
      {"measurement": "FVC", "setting": "[4]; mean (SD)", "result": "3.36 (1.09) L"},
      {"measurement": "FVC, % predicted", "setting": "[4]; mean (SD)", "result": "83.78 (19.38) % predicted"},
      {"measurement": "FEV1", "setting": "[4]; mean (SD), iNO 5 ppm up to 28 days", "result": "2.64 (0.91) L"},
      {"measurement": "FEV1, % predicted", "setting": "[4]; mean (SD), listed as iNO", "result": "significantly greater"},
      {"measurement": "FEV1/FVC, % predicted", "setting": "[4]; mean (SD), listed as iNO", "result": "significantly greater"},
      {"measurement": "FVC, % predicted", "setting": "[4]; mean (SD), listed as iNO", "result": "significantly greater"},
      {"measurement": "TLC", "setting": "[4]; mean, listed as iNO", "result": "significantly greater"},
      {"measurement": "TLC, % predicted", "setting": "[4]; mean, listed as iNO", "result": "significantly greater"},
      {"measurement": "Patients with respiratory system AEs", "setting": "[5]", "result": 51, "unit": "%"},
      {"measurement": "Total adverse events (AEs) reported", "setting": "[5]", "result": 630, "unit": "events"},
      {"measurement": "Partial pressure of arterial oxygen (PaO2)", "setting": "[6]; initial 24 hours of treatment, p<0.05, resolved by 48 hours", "result": "significant increase"},
      {"measurement": "Days alive and meeting oxygenation criteria for extubation, benefit versus control", "setting": "[6]; intent-to-treat", "result": "no significant benefit"},
      {"measurement": "Mortality, benefit versus control (nitrogen gas)", "setting": "[6]; intent-to-treat, 5 ppm iNO, 385 patients", "result": "no significant benefit"},
      {"measurement": "Days alive and off assisted breathing, benefit versus control", "setting": "[6]; intent-to-treat, primary endpoint", "result": "no significant benefit"}
    ]}
  ]
}
